{"source": "patent US20230364051A1", "about": "“FORMULATIONS AND METHODS FOR IMPROVING AVIAN HEALTH” (CORNELL UNIVERSITY, priority 2022, published 2023)", "key": {"[1]": {"system": "gut bacterial populations", "conditions": "mice fed a high fat diet; cited from earlier work"}, "[2]": {"conditions": "maternal intake perinatally and throughout pregnancy, mice; cited from earlier work"}, "[3]": {"system": "glial cells", "conditions": "via ceruloplasmin and ferroportin-1; cited from earlier work"}, "[4]": {"system": "duodenum", "experiment": "Duodenal tissue morphology examination (villi, crypts, goblet cells, Paneth cells)", "type": "in vivo, Gallus gallus", "conditions": "for # Crypt Paneth Cells / Crypt Depth / Crypt Goblet Cell Diameter / Crypt Goblet Cell Number Acidic / Crypt Goblet Cell Number Mixture / Crypt Goblet Cell Number Neutral / Crypt Goblet Cell Number Total / Crypt Paneth cell Diameter / Villi Goblet Cell Diameter / Villi Goblet Cell Number Acidic / Villi Goblet Cell Number Mixture / Villi Goblet Cell Number Neutral / Villi Goblet Cell Number Total / Villus Height / Villus Surface Area / Villus Width: day 17, duodenum at hatch", "experimental": "Cornish-cross fertile broiler eggs (Gallus gallus, n = 39) were obtained from a commercial hatchery (Moyer’s chicks, Quakertown, PA, USA). The eggs were incubated under optimal conditions at the Cornell University Animal Science Poultry Farm Incubator [18]. […] Each group was then injected with the specific solution (1 mL per egg) with a 21-gauge needle into the amniotic fluid. Treatments in powder form were separately diluted in DI H2O. […] After injection, the injection holes were sealed with cellophane tape and the eggs were placed in hatching baskets such that each treatment was equally represented at each incubator location. Immediately upon hatch (day 21), blood was taken for hemoglobin determination and all chicks were then euthanized by CO2 exposure. The small intestine, pectoral muscle, cecum, and liver were collected, immediately frozen in liquid nitrogen, and then stored in a -80° C. freezer until analysis.\nIntestinal morphology examination was performed as was previously described. Duodenum samples were fixed in fresh 4 wt. % (v/v) buffered formaldehyde, dehydrated, cleared, and embedded in paraffin. Serial sections were cut at 5 µm and placed on glass slides. Intestinal sections were deparaffinized in xylene, rehydrated in a graded alcohol series, stained with Alcian Blue/Periodic acid-Schiff, and examined by light microscopy. The following variables were measured in the intestine: villus height, villus width, crypt depth, Paneth cell number per crypt, Paneth cell width, goblet cell number, goblet cell diameter, types of goblet cells in the villi epithelium, and types of goblet cells within the crypts. Measurements in each segment were performed with a light microscope using CellSens Standard software (Olympus, Waltham, MA, USA)."}, "[5]": {"conditions": "1.25 wt. % genistein intraamniotic"}, "[6]": {"conditions": "2.5 wt. % genistein intraamniotic"}, "[7]": {"conditions": "2.5 wt. % genistein vs no injection and H2O, p < 0.05"}, "[8]": {"conditions": "2.5 wt. % vs 1.25 wt. % genistein, p < 0.05"}, "[9]": {"conditions": "both genistein treatment groups vs control groups, p < 0.05"}, "[10]": {"conditions": "genistein treatment groups (1.25, 2.5 wt. %) vs no injection, H2O and inulin, p < 0.05"}}, "note": "Marks after values point to notes of the source that are not given here."}
{"smiles": "O=c1c(-c2ccc(O)cc2)coc2cc(O)cc(O)c12", "note": "[Genistein, genistein]", "values": [{"measurement": "Gut bacterial populations associated with decreasing levels of lipopolysaccharide", "setting": "[1]", "result": "increased"}, {"measurement": "Harmful effects of a high-fat fed diet in dams and offspring", "setting": "[2]", "result": "mitigated"}, {"measurement": "Fe export", "setting": "[3]", "result": "significantly increased"}, {"measurement": "# Crypt Paneth Cells", "setting": "[4]; [5]", "result": "2.92 ± 0.10 ^b"}, {"measurement": "Crypt Depth", "setting": "[4]; [5]", "result": "26.36 ± 0.46 ^c µm"}, {"measurement": "Crypt Goblet Cell Diameter", "setting": "[4]; [5]", "result": "2.89 ± 0.02 ^a µm"}, {"measurement": "Crypt Goblet Cell Number Acidic", "setting": "[4]; [5]", "result": "8.51 ± 0.14 ^a Unit"}, {"measurement": "Crypt Goblet Cell Number Mixture", "setting": "[4]; [5]", "result": "0.74 ± 0.06 ^d Unit"}, {"measurement": "Crypt Goblet Cell Number Neutral", "setting": "[4]; [5]", "result": "0.00 ± 0.00 ^a Unit"}, {"measurement": "Crypt Goblet Cell Number Total", "setting": "[4]; [5]", "result": "9.25 ± 0.14 ^ab Unit"}, {"measurement": "Crypt Paneth cell Diameter", "setting": "[4]; [5]", "result": "1.78 ± 0.04 ^a µm"}, {"measurement": "Villi Goblet Cell Diameter", "setting": "[4]; [5]", "result": "3.41 ± 0.03 ^b µm"}, {"measurement": "Villi Goblet Cell Number Acidic", "setting": "[4]; [5]", "result": "23.49 ± 0.67 ^a Unit"}, {"measurement": "Villi Goblet Cell Number Mixture", "setting": "[4]; [5]", "result": "1.69 ± 0.13 ^e Unit"}, {"measurement": "Villi Goblet Cell Number Neutral", "setting": "[4]; [5]", "result": "0.09 ± 0.03 ^b Unit"}, {"measurement": "Villi Goblet Cell Number Total", "setting": "[4]; [5]", "result": "25.26 ± 0.67 ^a Unit"}, {"measurement": "Villus Height", "setting": "[4]; [5]", "result": "204.18 ± 3.73 ^b µm"}, {"measurement": "Villus Surface Area", "setting": "[4]; [5]", "result": "146.97 ± 4.55 ^c mm2"}, {"measurement": "Villus Width", "setting": "[4]; [5]", "result": "44.51 ± 0.86 ^c µm"}, {"measurement": "Crypt goblet cell diameter vs controls", "setting": "[4]; 1.25 wt. % genistein vs all control groups, p < 0.05", "result": "significantly greater"}, {"measurement": "Crypt Paneth cell diameter vs controls", "setting": "[4]; 1.25 wt. % genistein vs no injection and 5 wt. % inulin, p < 0.05", "result": "significantly (p < 0.05) higher"}, {"measurement": "Villus width vs controls", "setting": "[4]; 1.25 wt. % genistein vs no injection and H2O, p < 0.05", "result": "significantly (p < 0.05) greater"}, {"measurement": "# Crypt Paneth Cells", "setting": "[4]; [6]", "result": "3.24 ± 0.11 ^a"}, {"measurement": "Crypt Depth", "setting": "[4]; [6]", "result": "23.65 ± 0.46 ^d µm"}, {"measurement": "Crypt Goblet Cell Diameter", "setting": "[4]; [6]", "result": "2.63 ± 0.02 ^b µm"}, {"measurement": "Crypt Goblet Cell Number Acidic", "setting": "[4]; [6]", "result": "8.81 ± 0.19 ^a Unit"}, {"measurement": "Crypt Goblet Cell Number Mixture", "setting": "[4]; [6]", "result": "0.88 ± 0.06 ^d Unit"}, {"measurement": "Crypt Goblet Cell Number Neutral", "setting": "[4]; [6]", "result": "0.00 ± 0.00 ^a Unit"}, {"measurement": "Crypt Goblet Cell Number Total", "setting": "[4]; [6]", "result": "9.68 ± 0.19 ^a Unit"}, {"measurement": "Crypt Paneth cell Diameter", "setting": "[4]; [6]", "result": "1.65 ± 0.03 ^b µm"}, {"measurement": "Villi Goblet Cell Diameter", "setting": "[4]; [6]", "result": "3.50 ± 0.03 ^a µm"}, {"measurement": "Villi Goblet Cell Number Acidic", "setting": "[4]; [6]", "result": "22.01 ± 0.51 ^b Unit"}, {"measurement": "Villi Goblet Cell Number Mixture", "setting": "[4]; [6]", "result": "2.70 ± 0.16 ^d Unit"}, {"measurement": "Villi Goblet Cell Number Neutral", "setting": "[4]; [6]", "result": "0.19 ± 0.04 ^a Unit"}, {"measurement": "Villi Goblet Cell Number Total", "setting": "[4]; [6]", "result": "24.89 ± 0.54 ^a Unit"}, {"measurement": "Villus Height", "setting": "[4]; [6]", "result": "238.22 ± 3.17 ^a µm"}, {"measurement": "Villus Surface Area", "setting": "[4]; [6]", "result": "184.13 ± 4.66 ^b mm2"}, {"measurement": "Villus Width", "setting": "[4]; [6]", "result": "48.27 ± 0.87 ^b µm"}, {"measurement": "Crypt goblet cell diameter vs inulin", "setting": "[4]; 2.5 wt. % genistein vs 5 wt. % inulin", "result": "significantly higher"}, {"measurement": "Villus height vs controls", "setting": "[4]; [7]", "result": "significantly increased"}, {"measurement": "Villus surface area vs controls", "setting": "[4]; [7]", "result": "significantly increased"}, {"measurement": "Villus width vs controls", "setting": "[4]; [7]", "result": "significantly increased"}, {"measurement": "Villus height, dose comparison", "setting": "[4]; [8]", "result": "significantly higher"}, {"measurement": "Villus surface area, dose comparison", "setting": "[4]; [8]", "result": "significantly higher"}, {"measurement": "Villus width, dose comparison", "setting": "[4]; [8]", "result": "significantly higher"}, {"measurement": "Acidic villi goblet cell count vs controls", "setting": "[4]; [9]", "result": "significantly higher"}, {"measurement": "Neutral villi goblet cell count vs controls", "setting": "[4]; [9]", "result": "significantly higher"}, {"measurement": "Mixture villi goblet cells vs controls", "setting": "[4]; both genistein treatment groups vs controls, p < 0.05", "result": "significantly reduced"}, {"measurement": "Acidic crypt goblet cell count vs controls", "setting": "[4]; both genistein treatment groups vs no injection, H2O and inulin, p < 0.05", "result": "significantly higher"}, {"measurement": "Total crypt goblet cell count vs controls", "setting": "[4]; genistein exposure vs no injection and H2O, p < 0.05", "result": "significantly higher"}, {"measurement": "Mixed crypt goblet cells vs controls", "setting": "[4]; genistein exposure vs no injection, H2O and inulin, p < 0.05", "result": "significantly reduced"}, {"measurement": "Total number of villi goblet cells vs controls", "setting": "[4]; [10]", "result": "significantly higher"}, {"measurement": "Villi goblet cell diameter vs controls", "setting": "[4]; [10]", "result": "significantly higher"}, {"measurement": "Crypt depth vs control", "setting": "[4]; genistein treatment groups vs H2O-injection group, p < 0.05", "result": "significantly lower"}, {"measurement": "Number of crypt Paneth cells vs controls", "setting": "[4]; genistein treatment groups vs no injection, H2O and inulin, p < 0.05", "result": "significantly greater"}]}
